Paper PMC2566937 (Journal of medicinal chemistry, 2008)
Several values for one entry are separate records, joined by “and”; a condition that tells them apart may be missing. Equal values may be shown once. Entries after “also recorded” stand apart in the source; their conditions may differ. Marks after values point to notes of the source that are not given here.

Experiments:
[1] = target: α4β3γ2 GABAA receptor (Rattus norvegicus, UniProt P28471+P63079); conditions: for Current induced by compound alone, % of maximal GABA-induced current: 1 mM compound
[2] = target: α1R66Cβ2 GABAA receptor (Rattus norvegicus, UniProt P62813+P63138, R93C)
[3] = target: T1, α3β3γ2 GABAA receptor (Rattus norvegicus, UniProt P20236+P63079); assay type: cell-based; conditions: 1 mM compound co-applied with approx. GABA EC20–25
[4] = target: T2, α1β3γ2 GABAA receptor (Rattus norvegicus, UniProt P62813+P63079); conditions: for Current induced by compound alone, % of maximal GABA-induced current: 1 mM compound
[5] = system: GABA recognition site (GABAA receptors) in native cerebellar membranes; assay: [3H]muscimol binding, rat cerebellar membranes; conditions: for pseudo-Hill coefficient η, cerebellum: against 6 nM [3H]muscimol, mean ± S.E.M.
[6] = system: GABA recognition site (GABAA receptors) in native cortical membranes; assay: [3H]muscimol binding, rat cortical membranes; conditions: for Inhibition of muscimol binding at 100 μM (criterion for full binding analysis): cortical and cerebellar membranes (tissue not given); for pseudo-Hill coefficient η, cortex: against 6 nM [3H]muscimol, mean ± S.E.M.
[7] = target: T1, α3β3γ2 GABAA receptor
[8] = target: α5β3γ2 GABAA receptor (Rattus norvegicus, UniProt P19969+P63079)
[9] = target: T3, α1F64Cβ2 GABAA receptor (Rattus norvegicus, UniProt P62813+P63138, F91C); assay type: cell-based
[10] = target: T4, α1β2 wt GABAA receptor (Rattus norvegicus, UniProt P62813+P63138); assay type: cell-based
[11] = target: α1S68Cβ2 GABAA receptor (Rattus norvegicus, UniProt P62813+P63138, S95C); assay type: cell-based; conditions: read-out: Inhibition of the EC20 GABA current
[12] = target: T3, α1F64Cβ2 GABAA receptor
[13] = target: T4, α1β2 wt GABAA receptor; assay: Cysteine modification by MTS reagent, oocyte voltage clamp, wt; assay type: cell-based; conditions: data not shown
[14] = target: T2, α1β3γ2 GABAA receptor; assay type: cell-based; conditions: 1 mM compound co-applied with approx. GABA EC20–25
[15] = read-out: Inhibition of the EC20 GABA current

Row | Structure (SMILES) | Current induced by compound alone, % of maximal GABA-induced current [1] | Potentiation of GABA-induced current [3] | Current induced by compound alone, % of maximal GABA-induced current [4] | pseudo-Hill coefficient η, cerebellum [5] | Inhibition of muscimol binding at 100 μM (criterion for full binding analysis) [6] | pseudo-Hill coefficient η, cortex [6] | other results
1 | Cl.Oc1nnc(C2CCNCC2)o1 [5a, 5-Piperidin-4-yl-3H-[1,3,4]oxadiazol-2-one Hydrochloride] | less than 10% | 22 ± 11% | less than 10% | 0.79 ± 0.06 | at least 30% | 0.86 ± 0.10 | Effect of repeated application on subsequent GABA currents ([2]; repeated 10 s applications of 30 mM, α1R66Cβ2): did not decrease the subsequent GABA test currents; also recorded: did not irreversible alter the subsequent GABA currents
2 | Cl.NCc1nnc(O)o1 [5d, 5-Aminomethyl-3H-[1,3,4]oxadiazol-2-one Hydrochloride] |  |  |  | 0.90 ± 0.21 | at least 30% | 1.12 ± 0.13 | EC50 [7]: 1000 µM; Hill coefficient (direct activation) ([7]; α3β3γ2, value of an extrapolated dose-response curve): 0.81 ^*; Hill coefficient (direct activation) [1]: 1.56 ± 0.11; Hill coefficient (direct activation) [8]: 1.31 ± 0.12; Hill coefficient (direct activation) [4]: 0.99 ± 0.05
3 | Cl.NCCc1nnc(O)o1 [5g] |  |  |  | 0.92 and 0.92 ± 0.11 | at least 30% | 0.63 and 0.63 ± 0.06 | 
4 | Cl.Sc1nnc(C2CCNCC2)o1 [6a, 5-Piperidin-4-yl-3H-[1,3,4]oxadiazol-2-thione Hydrochloride] | less than 10% | 114 ± 8% | less than 10% | 1.03 ± 0.08 | at least 30% | 0.99 ± 0.09 | 6a EC50 relative to wt [9]: 0.6 fold; inhibition at 1000 µM [9, 15]: > 90%; inhibition at 1000 µM [10, 15]: > 90%; inhibition at 1000 µM [11]: > 90%
5 | Cl.NCc1nnc(S)o1 [6d, 5-Aminomethyl-3H-[1,3,4]oxadiazol-2-thione Hydrochloride] |  |  |  | 0.96 ± 0.12 | at least 30% | 0.92 ± 0.05 | 
6 | Oc1nnc(C2CCCCC2)o1 [9d, 5-Cyclohexyl-3H-[1,3,4]oxadiazole-2-one] |  |  |  |  |  |  | Percent inhibition of [3H]muscimol binding, cerebellum, 100 μM ([5]; 100 μM test compound, well-washed rat cerebellum membranes, mean ± S.D.): −11 ± 11 (3) %
7 | CS(=O)(=S)OCCNC(=O)CCCC[C@@H]1SC[C@@H]2NC(=O)N[C@@H]21 (stereo partly shown) [MTSEA-biotin] |  |  |  |  |  |  | Inhibition of subsequent GABA test currents, MTSEA-biotin alone (control) ([2]; 30 μM MTSEA-biotin, α1R66Cβ2, n = 2): 87% and 100%
8 | CS(=O)(=O)SCCS(=O)(=O)O [MTSES^−, 2-sulfonatoethyl methanethiosulfonate] |  |  |  |  |  |  | Inhibition of subsequent GABA EC50 current, MTSES− alone (control) ([2]; 12 s, 2 mM MTSES−, α1R66Cβ2): 91 ± 3%; Inhibition of GABA EC50 currents after complete reaction with MTS reagent ([2]; α1R66C + β2, % ± S.E.M.): 62 ± 3 (4) %; Second-order reaction rate constant with the engineered cysteine ([2]; α1R66Cβ2): 48 ± 7 M⁻¹ s⁻¹; Reduction in subsequent GABA EC50 test currents, MTSES− alone (control) ([12]; 12 s, 10 μM MTSES−, α1F64Cβ2): 87% and 87 ± 3%; Inhibition of GABA EC50 currents after complete reaction with MTS reagent ([12]; α1F64C + β2, % ± S.E.M.): 89 ± 3 (4) %; Effect of MTS reagent on the GABA current [13]: did not affect the GABA current
9 | Cc1nnc(C2CCNCC2)o1.Cl [compound 19, 4-(5-Methyl-[1,3,4]oxadiazol-2-yl)-piperidine Hydrochloride] | less than 10% | 11% | less than 10% | 0.91 ± 0.05 | at least 30% | 0.88 ± 0.08 | Potentiation of GABA-induced current [14]: 21%; Current induced by compound alone, % of maximal GABA-induced current ([7]; 1 mM compound, α3β3γ2): less than 10%; Current induced by compound alone, % of maximal GABA-induced current ([8]; 1 mM compound): less than 10%
10 | C=C(C)[C@@H]1[C@H]2OC(=O)[C@@H]1[C@]1(O)C[C@H]3O[C@]34C(=O)O[C@H]2[C@]14C [picrotoxinin, reference compound] |  |  |  |  |  |  | inhibition at 100 µM ([10]; read-out: Inhibition of 6a-induced currents): 80 to 90%
